Structures can show the parent of a compound that is named as a salt.
test system: GST-Braf kinase domain and biotinylated E3 substrate adapter (VHL/EloB/EloC complex or CRBN318-425); test: Dimerization assay (AlphaScreen/AlphaLisa), RAF/E3 dimerization; assay type: binding; conditions: Table 15; relative value; compounds 4 fold serial dilutions from 20 μM

Row | SMILES | RAF/E3 Dimerization
1 | Cc1ncc(NC(=O)c2cccc(C(F)(F)F)c2)cc1-c1cnc(OCCCCc2cn(CCCCCC(=O)Nc3cccc4c3C(=O)N(C3CCC(=O)NC3=O)C4=O)nn2)c(N2CCOCC2)c1 (centres unmarked) [Compound 1.004, N-(6′-(4-(1-(6-((2-(2,6-dioxopiperidin-3-yl)-1,3-dioxoisoindolin-4-yl)amino)-6-oxohexyl)-1H-1,2,3-triazol-4-yl)butoxy)-2-methyl-5′-morpholino-[3,3′-bipyridin]-5-yl)-3-(trifluoromethyl)benzamide] | + (5% > RAF/E3 Dimerization)
2 | Cc1ncc(NC(=O)c2cccc(C(F)(F)F)c2)cc1-c1cnc(OCCOCCOCCOCc2cn(CCCCCC(=O)Nc3cccc4c3C(=O)N(C3CCC(=O)NC3=O)C4=O)nn2)c(N2CCOCC2)c1 (centres unmarked) [Compound 1.007, N-(6′-(2-(2-(2-((1-(6-((2-(2,6-dioxopiperidin-3-yl)-1,3-dioxoisoindolin-4-yl)amino)-6-oxohexyl)-1H-1,2,3-triazol-4-yl)methoxy)ethoxy)ethoxy)ethoxy)-2-methyl-5′-morpholino-[3,3′-bipyridin]-5-yl)-3-(trifluoromethyl)benzamide] | + + +
3 | Cc1ncc(NC(=O)c2cccc(C(F)(F)F)c2)cc1-c1cnc(OCCOCCOCCOCCOCCOCc2cn(CCCCCC(=O)Nc3cccc4c3C(=O)N(C3CCC(=O)NC3=O)C4=O)nn2)c(N2CCOCC2)c1 (centres unmarked) [Compound 1.008, N-(6′-((1-(1-(6-((2-(2,6-dioxopiperidin-3-yl)-1,3-dioxoisoindolin-4-yl)amino)-6-oxohexyl)-1H-1,2,3-triazol-4-yl)-2,5,8,11,14-pentaoxahexadecan-16-yl)oxy)-2-methyl-5′-morpholino-[3,3′-bipyridin]-5-yl)-3-(trifluoromethyl)benzamide] | + + +

Results, then the compound that gave them:

Row | RAF/E3 Dimerization | SMILES
4 | + + | Cc1ncc(NC(=O)c2cccc(C(F)(F)F)c2)cc1-c1cnc(OCc2cn(CCCCCC(=O)Nc3cccc4c3C(=O)N(C3CCC(=O)NC3=O)C4=O)nn2)c(N2CCOCC2)c1 (centres unmarked) [Compound 1.001, N-(6′-((1-(6-((2-(2,6-dioxopiperidin-3-yl)-1,3-dioxoisoindolin-4-yl)amino)-6-oxohexyl)-1H-1,2,3-triazol-4-yl)methoxy)-2-methyl-5′-morpholino-[3,3′-bipyridin]-5-yl)-3-(trifluoromethyl)benzamide]
5 | + (5% > RAF/E3 Dimerization) | Cc1ncc(NC(=O)c2cccc(C(F)(F)F)c2)cc1-c1cnc(OCCc2cn(CCCCCC(=O)Nc3cccc4c3C(=O)N(C3CCC(=O)NC3=O)C4=O)nn2)c(N2CCOCC2)c1 (centres unmarked) [Compound 1.002, N-(6′-(2-(1-(6-((2-(2,6-dioxopiperidin-3-yl)-1,3-dioxoisoindolin-4-yl)amino)-6-oxohexyl)-1H-1,2,3-triazol-4-yl)ethoxy)-2-methyl-5′-morpholino-[3,3′-bipyridin]-5-yl)-3-(trifluoromethyl)benzamide]
6 | + + | Cc1ncc(NC(=O)c2cccc(C(F)(F)F)c2)cc1-c1cnc(OCCCc2cn(CCCCCC(=O)Nc3cccc4c3C(=O)N(C3CCC(=O)NC3=O)C4=O)nn2)c(N2CCOCC2)c1 (centres unmarked) [Compound 1.003, N-(6′-(3-(1-(6-((2-(2,6-dioxopiperidin-3-yl)-1,3-dioxoisoindolin-4-yl)amino)-6-oxohexyl)-1H-1,2,3-triazol-4-yl)propoxy)-2-methyl-5′-morpholino-[3,3′-bipyridin]-5-yl)-3-(trifluoromethyl)benzamide]
7 | + (5% > RAF/E3 Dimerization) | Cc1ncc(NC(=O)c2cccc(C(F)(F)F)c2)cc1-c1cnc(OCCCCCc2cn(CCCCCC(=O)Nc3cccc4c3C(=O)N(C3CCC(=O)NC3=O)C4=O)nn2)c(N2CCOCC2)c1 (centres unmarked) [Compound 1.005, N-(6′-((5-(1-(6-((2-(2,6-dioxopiperidin-3-yl)-1,3-dioxoisoindolin-4-yl)amino)-6-oxohexyl)-1H-1,2,3-triazol-4-yl)pentyl)oxy)-2-methyl-5′-morpholino-[3,3′-bipyridin]-5-yl)-3-(trifluoromethyl)benzamide]
8 | + (5% > RAF/E3 Dimerization) | Cc1ncc(NC(=O)c2cccc(C(F)(F)F)c2)cc1-c1cnc(OCCCCCCc2cn(CCCCCC(=O)Nc3cccc4c3C(=O)N(C3CCC(=O)NC3=O)C4=O)nn2)c(N2CCOCC2)c1 (centres unmarked) [Compound 1.006, N-(6′-((6-(1-(6-((2-(2,6-dioxopiperidin-3-yl)-1,3-dioxoisoindolin-4-yl)amino)-6-oxohexyl)-1H-1,2,3-triazol-4-yl)hexyl)oxy)-2-methyl-5′-morpholino-[3,3′-bipyridin]-5-yl)-3-(trifluoromethyl)benzamide]

same assay, conditions: Table 16; relative value; compounds 4 fold serial dilutions from 20 μM

Row | RAF/E3 Dimerization | SMILES
9 | + + + | Cc1ncc(NC(=O)c2cccc(C(F)(F)F)c2)cc1-c1cnc(OCCOCCOCCOCC(=O)N[C@@H](C(=O)N2C[C@H](O)C[C@H]2C(=O)N[C@@H](C)c2ccc(-c3scnc3C)cc2)C(C)(C)C)c(N2CCOCC2)c1 [Compound 1.013, (2S,4R)-1-((R)-2-(tert-butyl)-14-((2′-methyl-5-morpholino-5′-(3-(trifluoromethyl)benza-mido)-[3,3′-bipyridin]-6-yl)oxy)-4-oxo-6,9,12-trioxa-3-azatetradecan-1-oyl)-4-hydroxy-N—((S)-1-(4-(4-methylthiazol-5-yl)phenyl)ethyl)pyrrolidine-2-carboxamide]

same assay, conditions: Table 17; relative value; compounds 4 fold serial dilutions from 20 μM

Row | RAF/E3 Dimerization | SMILES
10 | + (5% > RAF/E3 Dimerization) | Cc1ncc(NC(=O)c2cccc(C(F)(F)F)c2)cc1-c1cnc(OC(C)Cc2cnnn2CCCCCC(=O)Nc2cccc3c2C(=O)N(C2CCC(=O)NC2=O)C3=O)c(N2CCOCC2)c1 (racemic) [Compound 1.010, (±)-N-(6′-((1-(1-(6-((2-(2,6-dioxopiperidin-3-yl)-1,3-dioxoisoindolin-4-yl)amino)-6-oxohexyl)-1H-1,2,3-triazol-5-yl)propan-2-yl)oxy)-2-methyl-5′-morpholino-[3,3′-bipyridin]-5-yl)-3-(trifluoromethyl)benzamide]
11 | + (5% > RAF/E3 Dimerization) | Cc1ccc(NC(=O)c2cccc(C(F)(F)F)c2)cc1-c1cnc(OC(C)Cc2cnnn2CCCCCC(=O)Nc2cccc3c2C(=O)N(C2CCC(=O)NC2=O)C3=O)c(N2CCOCC2)c1 (racemic) [Compound 1.011, (±)-N-(3-(6-((1-(1-(6-((2-(2,6-dioxopiperidin-3-yl)-1,3-dioxoisoindolin-4-yl)amino)-6-oxohexyl)-1H-1,2,3-triazol-5-yl)propan-2-yl)oxy)-5-morpholinopyridin-3-yl)-4-methylphenyl)-3-(trifluoromethyl)benzamide]
12 | + (5% > RAF/E3 Dimerization) | CCC(Cc1cnnn1CCCCCC(=O)Nc1cccc2c1C(=O)N(C1CCC(=O)NC1=O)C2=O)Oc1ncc(-c2cc(NC(=O)c3cccc(C(F)(F)F)c3)cnc2C)cc1N1CCOCC1 (racemic) [Compound 1.012, (±)-N-(6′-((1-(1-(6-((2-(2,6-dioxopiperidin-3-yl)-1,3-dioxoisoindolin-4-yl)amino)-6-oxohexyl)-1H-1,2,3-triazol-5-yl)butan-2-yl)oxy)-2-methyl-5′-morpholino-[3,3′-bipyridin]-5-yl)-3-(trifluoromethyl)benzamide]
13 | + (5% > RAF/E3 Dimerization) | Cc1ncsc1-c1ccc([C@H](C)NC(=O)C2C[C@@H](O)CN2C(=O)C(NC(=O)CCOCCOCCNC(=O)c2cc(Oc3ccc(NC(=O)Nc4ccc(Cl)c(C(F)(F)F)c4)cc3)ccn2)C(C)(C)C)cc1 (stereo in doubt) [Compound 1.014, 4-(4-(3-(4-chloro-3-(trifluoromethyl)phenyl)ureido)phenoxy)-N-(2-(2-(3-(((R)-1-((2S,4R)-4-hydroxy-2-(((S)-1-(4-(4-methylthiazol-5-yl)phenyl)ethyl)carbamoyl)pyrrolidin-1-yl)-3,3-dimethyl-1-oxobutan-2-yl)amino)-3-oxopropoxy)ethoxy)ethyl)picolinamide]
14 | + (5% > RAF/E3 Dimerization) | Cc1ncsc1-c1ccc([C@H](C)NC(=O)[C@@H]2C[C@@H](O)CN2C(=O)[C@H](NC(=O)CCOCCOCCOCCOCCNC(=O)c2cc(Oc3ccc(NC(=O)Nc4ccc(Cl)c(C(F)(F)F)c4)cc3)ccn2)C(C)(C)C)cc1 [Compound 1.015, 4-(4-(3-(4-chloro-3-(trifluoromethyl)phenyl)ureido)phenoxy)-N-(17-((2S,4R)-4-hydroxy-2-(((S)-1-(4-(4-methylthiazol-5-yl)phenyl)ethyl)carbamoyl)pyrrolidine-1-carbonyl)-18,18-dimethyl-15-oxo-3,6,9,12-tetraoxa-16-azanonadecyl)picolinamide]
15 | + (5% > RAF/E3 Dimerization) | Cc1ncsc1-c1ccc([C@H](C)NC(=O)[C@@H]2C[C@@H](O)CN2C(=O)[C@H](NC(=O)CCOCCOCCOCCOCCOCCOCCNC(=O)c2cc(Oc3ccc(NC(=O)Nc4ccc(Cl)c(C(F)(F)F)c4)cc3)ccn2)C(C)(C)C)cc1 [Compound 1.016, 4-(4-(3-(4-chloro-3-(trifluoromethyl)phenyl)ureido)phenoxy)-N—((R)-23-((2S,4R)-4-hydroxy-2-(((S)-1-(4-(4-methylthiazol-5-yl)phenyl)ethyl)carbamoyl)pyrrolidine-1-carbonyl)-24,24-dimethyl-21-oxo-3,6,9,12,15,18-hexaoxa-22-azapentacosyl)picolinamide]
16 | ++++ (75% > RAF/E3 Dimerization ≥ 50%) | Cc1ncc(NC(=O)c2cccc(C(F)(F)F)c2)cc1-c1cnc(O[C@@H]2CCO[C@@H](COCc3cn(CCCCCC(=O)N[C@@H](C(=O)N4C[C@H](O)C[C@H]4C(=O)N[C@@H](C)c4ccc(-c5scnc5C)cc4)C(C)(C)C)nn3)C2)c(N2CCOCC2)c1 [Compound 2.005]
17 | + (5% > RAF/E3 Dimerization) | Cc1ncc(NC(=O)c2cccc(C(F)(F)F)c2)cc1-c1cnc(OCCOCCOCCOCCN[C@@H](C(=O)N2C[C@H](O)C[C@H]2C(=O)N[C@@H](C)c2ccc(-c3scnc3C)cc2)C(C)(C)C)c(N2CCOCC2)c1 [Compound 2.006, (R)-1-((2S,4R)-4-hydroxy-2-(((S)-1-(4-(4-methylthiazol-5-yl)phenyl)ethyl)carbamoyl)-pyrrolidin-1-yl)-3,3-dimethyl-N-(2-(2-(2-(2-((2′-methyl-5-morpholino-5′-(3-(trifluoro-methyl)benzamido)-[3,3′-bipyridin]-6-yl)oxy)ethoxy)ethoxy)ethoxy)ethyl)-1-oxobutan-2-aminium formate]

Reference: patent US10787443B2, “RAF-degrading conjugate compounds” (ZAMBONI CHEM SOLUTIONS INC., priority 2017, dated 2020)
